Experimental data published in BindingDB's records for doi:10.1124/jpet.301.1.37 (National Institutes of Health, 2002).
Where “and” joins values, the source holds several entries; their conditions need not be identical. Equal values may be shown once.

Assays:
VIP peptides [1] = biological target: T1, VIP peptides (Homo sapiens, UniProt P01282)
T1 sequence (P01282 whole entry): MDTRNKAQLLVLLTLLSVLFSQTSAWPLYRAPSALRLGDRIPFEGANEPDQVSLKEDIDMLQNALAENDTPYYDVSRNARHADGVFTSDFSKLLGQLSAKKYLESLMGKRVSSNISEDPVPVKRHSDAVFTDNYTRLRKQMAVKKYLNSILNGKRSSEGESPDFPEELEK

VIP peptides [2] = biological target: T2, VIP peptides (Cavia porcellus, UniProt P04566)
T2 sequence (P04566 whole entry): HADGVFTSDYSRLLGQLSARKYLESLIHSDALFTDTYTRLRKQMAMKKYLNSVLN

VIP peptides [3] = biological target: T3, VIP peptides (Rattus norvegicus, UniProt P01283)
T3 sequence (P01283 whole entry): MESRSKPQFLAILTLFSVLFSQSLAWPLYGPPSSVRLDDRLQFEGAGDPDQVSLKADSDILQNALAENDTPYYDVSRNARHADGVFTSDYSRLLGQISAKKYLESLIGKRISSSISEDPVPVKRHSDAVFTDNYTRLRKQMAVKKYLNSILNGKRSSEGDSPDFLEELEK

Ki (VIP peptides [1]) | Ki (VIP peptides [2]) [nM] | Molecule | Ki (VIP peptides [3])
17.8 nM and 51.3 nM and 35.7 nM | 66.1 | CC[C@H](C)[C@H](NC(=O)[C@H](CO)NC(=O)[C@H](CC(N)=O)NC(=O)[C@H](CC(C)C)NC(=O)[C@H](Cc1ccc(O)cc1)NC(=O)[C@H](CCCCN)NC(=O)[C@H](CCCCN)NC(=O)[C@@H](NC(=O)[C@H](C)NC(=O)[C@H](CCSC)NC(=O)[C@H](CCC(N)=O)NC(=O)[C@H](CCCCN)NC(=O)[C@H](CCCN=C(N)N)NC(=O)[C@H](CC(C)C)NC(=O)[C@H](CCCN=C(N)N)NC(=O)[C@@H](NC(=O)[C@H](Cc1ccc(O)cc1)NC(=O)[C@H](CC(N)=O)NC(=O)[C@H](CC(=O)O)NC(=O)[C@H](C)NC(=O)[C@H](Cc1ccccc1)NC(=O)[C@@H](NC(=O)[C@H](C)NC(=O)[C@H](CC(=O)O)NC(=O)[C@H](CO)NC(=O)[C@@H](N)Cc1cnc[nH]1)C(C)C)[C@@H](C)O)C(C)C)C(=O)N[C@@H](CC(C)C)C(=O)N[C@@H](CC(N)=O)C(N)=O [VIP Ala7] | 16.2 nM and 107 nM and 53.7 nM
16.9 nM and 89.1 nM and 64.5 nM | 95.4 | H-ASDAVFTDNYTRLRKQMAVKKYLNSILN-NH2 [VIP Ala1] | –
0.43 nM and 3.6 nM and 2.7 nM | 2.6 | H-HADAVFTDNYTRLRKQMAVKKYLNSILN-NH2 [VIP Ala2] | –
0.17 nM and 1.6 nM and 1.2 nM | 1.2 | H-HSDAVFTANYTRLRKQMAVKKYLNSILN-NH2 [VIP Ala8] | –
61.7 nM and 56.2 nM and 44.7 nM | 54.9 | H-HSDAVFTDNATRLRKQMAVKKYLNSILN-NH2 [VIP Ala10] | –
– | 2.4 | H-HSDAVFTDNYARLRKQMAVKKYLNSILN-NH2 [VIP Ala11] | 0.34 nM and 1.9 nM and 0.42 nM
2.1 nM and 16.2 nM and 15.9 nM | 1.9 | H-HSDAVFTDNYTRLRAQMAVKKYLNSILN-NH2 [VIP Ala15] | –
– | 5.1 | H-HSDAVFTDNYTRLRKAMAVKKYLNSILN-NH2 [VIP Ala16] | 0.93 nM and 2.1 nM and 1.1 nM
– | 5.5 | H-HSDAVFTDNYTRLRKQMAVAKYLNSILN-NH2 [VIP Ala20] | 1.7 nM and 3.5 nM and 3.3 nM
0.54 nM and 2.7 nM and 2.8 nM | 4.3 | H-HSDAVFTDNYTRLRKQMAVKKYLNSILA-NH2 [VIP Ala28] | –

Molecule | Ki (VIP peptides [1]) | Ki (VIP peptides [2]) [nM] | Ki (VIP peptides [3])
CC[C@H](C)[C@H](NC(=O)[C@H](CO)NC(=O)[C@H](CC(N)=O)NC(=O)[C@H](CC(C)C)NC(=O)[C@H](Cc1ccc(O)cc1)NC(=O)[C@H](CCCCN)NC(=O)[C@H](CCCCN)NC(=O)[C@@H](NC(=O)[C@H](C)NC(=O)[C@H](CCSC)NC(=O)[C@H](CCC(N)=O)NC(=O)[C@H](CCCCN)NC(=O)[C@H](CCCN=C(N)N)NC(=O)[C@H](CC(C)C)NC(=O)[C@H](CCCN=C(N)N)NC(=O)[C@@H](NC(=O)[C@H](Cc1ccc(O)cc1)NC(=O)[C@H](CC(N)=O)NC(=O)[C@H](CC(=O)O)NC(=O)[C@@H](NC(=O)[C@H](Cc1ccccc1)NC(=O)[C@@H](NC(=O)[C@@H](C)NC(=O)[C@H](CC(=O)O)NC(=O)[C@H](CO)NC(=O)[C@@H](N)Cc1cnc[nH]1)C(C)C)[C@@H](C)O)[C@@H](C)O)C(C)C)C(=O)N[C@@H](CC(C)C)C(=O)N[C@@H](CC(N)=O)C(N)=O [VIP [D-Ala4]] | – | 16.2 | 1.1 nM and 7.2 nM and 10.5 nM
CC[C@H](C)[C@H](NC(=O)[C@H](CO)NC(=O)[C@H](CC(N)=O)NC(=O)[C@H](CC(C)C)NC(=O)[C@H](Cc1ccc(O)cc1)NC(=O)[C@H](CCCCN)NC(=O)[C@H](CCCCN)NC(=O)[C@@H](NC(=O)[C@H](C)NC(=O)[C@H](CCSC)NC(=O)[C@H](CCC(N)=O)NC(=O)[C@H](CCCCN)NC(=O)[C@H](CCCN=C(N)N)NC(=O)[C@H](CC(C)C)NC(=O)[C@@H](CCCN=C(N)N)NC(=O)[C@@H](NC(=O)[C@H](Cc1ccc(O)cc1)NC(=O)[C@H](CC(N)=O)NC(=O)[C@H](CC(=O)O)NC(=O)[C@@H](NC(=O)[C@H](Cc1ccccc1)NC(=O)[C@@H](NC(=O)[C@H](C)NC(=O)[C@H](CC(=O)O)NC(=O)[C@H](CO)NC(=O)[C@@H](N)Cc1cnc[nH]1)C(C)C)[C@@H](C)O)[C@@H](C)O)C(C)C)C(=O)N[C@@H](CC(C)C)C(=O)N[C@@H](CC(N)=O)C(N)=O [VIP [D-Arg12]] | 2.2 nM and 18.2 nM and 14.4 nM | 16.9 | 2.8 nM and 11.7 nM and 19.1 nM
CC[C@H](C)[C@H](NC(=O)[C@H](CO)NC(=O)[C@H](CC(N)=O)NC(=O)[C@H](CC(C)C)NC(=O)[C@H](Cc1ccc(O)cc1)NC(=O)[C@H](CCCCN)NC(=O)[C@H](CCCCN)NC(=O)[C@@H](NC(=O)[C@H](C)NC(=O)[C@H](CCSC)NC(=O)[C@H](CCC(N)=O)NC(=O)[C@H](CCCCN)NC(=O)[C@@H](CCCN=C(N)N)NC(=O)[C@H](CC(C)C)NC(=O)[C@H](CCCN=C(N)N)NC(=O)[C@@H](NC(=O)[C@H](Cc1ccc(O)cc1)NC(=O)[C@H](CC(N)=O)NC(=O)[C@H](CC(=O)O)NC(=O)[C@@H](NC(=O)[C@H](Cc1ccccc1)NC(=O)[C@@H](NC(=O)[C@H](C)NC(=O)[C@H](CC(=O)O)NC(=O)[C@H](CO)NC(=O)[C@@H](N)Cc1cnc[nH]1)C(C)C)[C@@H](C)O)[C@@H](C)O)C(C)C)C(=O)N[C@@H](CC(C)C)C(=O)N[C@@H](CC(N)=O)C(N)=O [VIP [D-Arg14]] | 10.7 nM and 31.6 nM and 24.6 nM | 36.4 | 10.5 nM and 22.4 nM and 27.5 nM
CC[C@H](C)[C@H](NC(=O)[C@H](CO)NC(=O)[C@H](CC(N)=O)NC(=O)[C@H](CC(C)C)NC(=O)[C@H](Cc1ccc(O)cc1)NC(=O)[C@H](CCCCN)NC(=O)[C@H](CCCCN)NC(=O)[C@@H](NC(=O)[C@H](C)NC(=O)[C@H](CCSC)NC(=O)[C@H](CCC(N)=O)NC(=O)[C@H](CCCCN)NC(=O)[C@H](CCCN=C(N)N)NC(=O)[C@H](CC(C)C)NC(=O)[C@H](CCCN=C(N)N)NC(=O)[C@@H](NC(=O)[C@H](Cc1ccc(O)cc1)NC(=O)[C@H](CC(N)=O)NC(=O)[C@H](CC(=O)O)NC(=O)[C@@H](NC(=O)[C@H](Cc1ccccc1)NC(=O)[C@@H](NC(=O)[C@H](C)NC(=O)[C@H](CC(=O)O)NC(=O)[C@H](CO)NC(=O)[C@@H](N)Cc1cnc[nH]1)C(C)C)[C@@H](C)O)[C@@H](C)O)C(C)C)C(=O)N[C@@H](CC(C)C)C(=O)N[C@H](CC(N)=O)C(N)=O [VIP [D-Asn28]] | – | 14.8 | 1.5 nM and 6.3 nM and 11.8 nM
CC[C@H](C)[C@H](NC(=O)[C@H](CO)NC(=O)[C@H](CC(N)=O)NC(=O)[C@H](CC(C)C)NC(=O)[C@H](Cc1ccc(O)cc1)NC(=O)[C@H](CCCCN)NC(=O)[C@H](CCCCN)NC(=O)[C@@H](NC(=O)[C@H](C)NC(=O)[C@H](CCSC)NC(=O)[C@H](CCC(N)=O)NC(=O)[C@H](CCCCN)NC(=O)[C@H](CCCN=C(N)N)NC(=O)[C@H](CC(C)C)NC(=O)[C@H](CCCN=C(N)N)NC(=O)[C@@H](NC(=O)[C@H](Cc1ccc(O)cc1)NC(=O)[C@H](CC(N)=O)NC(=O)[C@H](CC(=O)O)NC(=O)[C@@H](NC(=O)[C@H](Cc1ccccc1)NC(=O)[C@@H](NC(=O)[C@H](C)NC(=O)[C@@H](CC(=O)O)NC(=O)[C@H](CO)NC(=O)[C@@H](N)Cc1cnc[nH]1)C(C)C)[C@@H](C)O)[C@@H](C)O)C(C)C)C(=O)N[C@@H](CC(C)C)C(=O)N[C@@H](CC(N)=O)C(N)=O [VIP [D-Asp3]] | – | 9.1 | 0.93 nM and 5.4 nM and 6.5 nM
CC[C@H](C)[C@H](NC(=O)[C@H](CO)NC(=O)[C@H](CC(N)=O)NC(=O)[C@H](CC(C)C)NC(=O)[C@H](Cc1ccc(O)cc1)NC(=O)[C@H](CCCCN)NC(=O)[C@H](CCCCN)NC(=O)[C@@H](NC(=O)[C@H](C)NC(=O)[C@H](CCSC)NC(=O)[C@@H](CCC(N)=O)NC(=O)[C@H](CCCCN)NC(=O)[C@H](CCCN=C(N)N)NC(=O)[C@H](CC(C)C)NC(=O)[C@H](CCCN=C(N)N)NC(=O)[C@@H](NC(=O)[C@H](Cc1ccc(O)cc1)NC(=O)[C@H](CC(N)=O)NC(=O)[C@H](CC(=O)O)NC(=O)[C@@H](NC(=O)[C@H](Cc1ccccc1)NC(=O)[C@@H](NC(=O)[C@H](C)NC(=O)[C@H](CC(=O)O)NC(=O)[C@H](CO)NC(=O)[C@@H](N)Cc1cnc[nH]1)C(C)C)[C@@H](C)O)[C@@H](C)O)C(C)C)C(=O)N[C@@H](CC(C)C)C(=O)N[C@@H](CC(N)=O)C(N)=O [VIP [D-Gln16]] | 1.1 nM and 2.9 nM and 3.5 nM | 11.5 | 1 nM and 5.6 nM and 9.3 nM
CC[C@H](C)[C@H](NC(=O)[C@H](CO)NC(=O)[C@H](CC(N)=O)NC(=O)[C@H](CC(C)C)NC(=O)[C@H](Cc1ccc(O)cc1)NC(=O)[C@H](CCCCN)NC(=O)[C@H](CCCCN)NC(=O)[C@@H](NC(=O)[C@H](C)NC(=O)[C@H](CCSC)NC(=O)[C@H](CCC(N)=O)NC(=O)[C@H](CCCCN)NC(=O)[C@H](CCCN=C(N)N)NC(=O)[C@H](CC(C)C)NC(=O)[C@H](CCCN=C(N)N)NC(=O)[C@@H](NC(=O)[C@H](Cc1ccc(O)cc1)NC(=O)[C@H](CC(N)=O)NC(=O)[C@H](CC(=O)O)NC(=O)[C@@H](NC(=O)[C@@H](Cc1ccccc1)NC(=O)[C@@H](NC(=O)[C@H](C)NC(=O)[C@H](CC(=O)O)NC(=O)[C@H](CO)NC(=O)[C@@H](N)Cc1cnc[nH]1)C(C)C)[C@@H](C)O)[C@@H](C)O)C(C)C)C(=O)N[C@@H](CC(C)C)C(=O)N[C@@H](CC(N)=O)C(N)=O [VIP [D-Phe6]] | 288 nM and 198 nM and 115 nM | 400 | 269 nM and 692 nM and 912 nM
CC[C@H](C)[C@H](NC(=O)[C@H](CO)NC(=O)[C@H](CC(N)=O)NC(=O)[C@H](CC(C)C)NC(=O)[C@H](Cc1ccc(O)cc1)NC(=O)[C@H](CCCCN)NC(=O)[C@H](CCCCN)NC(=O)[C@@H](NC(=O)[C@H](C)NC(=O)[C@H](CCSC)NC(=O)[C@H](CCC(N)=O)NC(=O)[C@H](CCCCN)NC(=O)[C@H](CCCN=C(N)N)NC(=O)[C@H](CC(C)C)NC(=O)[C@H](CCCN=C(N)N)NC(=O)[C@@H](NC(=O)[C@H](Cc1ccc(O)cc1)NC(=O)[C@H](CC(N)=O)NC(=O)[C@H](CC(=O)O)NC(=O)[C@@H](NC(=O)[C@H](Cc1ccccc1)NC(=O)[C@H](NC(=O)[C@H](C)NC(=O)[C@H](CC(=O)O)NC(=O)[C@H](CO)NC(=O)[C@@H](N)Cc1cnc[nH]1)C(C)C)[C@@H](C)O)[C@@H](C)O)C(C)C)C(=O)N[C@@H](CC(C)C)C(=O)N[C@@H](CC(N)=O)C(N)=O [VIP [D-Val5]] | 6.2 nM and 44.6 nM and 25.1 nM | 26.3 | –
